Where two headings read alike, the source gives them in different places. Positions of bridges follow the written chain, without caps; N, C: chain ends. Residues, ends and D or L forms follow the SMILES beside them. code X = not defined here; Su = not defined here
Columns and labels:
human plasma IgG3 = target: T1, human plasma IgG3 (Homo sapiens, UniProt P01860); assay: Fluorescence anisotropy binding, Oregon Green labeled peptide
T1 construct: the individual human plasma IgG isoforms: IgG1, IgG2, IgG3, or IgG4; purchased Calbiochem; host or cells: human plasma
T1 sequence (P01860 1-377 isoform P01860-1): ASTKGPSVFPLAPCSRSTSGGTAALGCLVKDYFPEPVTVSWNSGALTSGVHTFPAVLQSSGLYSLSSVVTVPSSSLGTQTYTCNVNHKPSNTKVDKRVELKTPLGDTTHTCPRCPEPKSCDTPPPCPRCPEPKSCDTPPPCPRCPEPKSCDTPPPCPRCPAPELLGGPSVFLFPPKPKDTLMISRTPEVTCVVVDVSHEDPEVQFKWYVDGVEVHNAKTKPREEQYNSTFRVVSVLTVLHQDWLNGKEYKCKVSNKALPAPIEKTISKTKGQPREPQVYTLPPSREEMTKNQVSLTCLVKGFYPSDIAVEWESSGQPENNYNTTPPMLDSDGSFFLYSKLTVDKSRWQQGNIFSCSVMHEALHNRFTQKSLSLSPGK
Protocol: (§1) Peptides were synthesized by BACHEM and then Oregon Green labeled and HPLC purified. Binding studies were performed using human plasma IgG isoforms: IgG1, IgG2, IgG3, and IgG4, obtained from Calbiochem.
(§2) Binding studies were carried out at either pH 4.0, 7.5, or 9.5, with or without salt in the following buffers:
(§3) 2) 10 mM Sodium Citrate, 500 mM Sodium Chloride, 0.01% Tween 20, pH 4.0;
(§4) 4) […], 500 mM Sodium Chloride, 0.01% Tween 20, pH 7.5;
(§5) 5) 10 mM Sodium Bicarbonate, 0.01% Tween 20, pH 9.5;
(§6) 6) 10 mM Sodium Bicarbonate, 500 mM Sodium Chloride, 0.01% Tween 20, pH 9.5; or […]

human plasma IgG1 = target: T2, human plasma IgG1 (Homo sapiens, UniProt P01857); assay: as above
T2 construct: the individual human plasma IgG isoforms: IgG1, IgG2, IgG3, or IgG4; purchased Calbiochem; host or cells: human plasma
T2 sequence (P01857 1-330 isoform P01857-1): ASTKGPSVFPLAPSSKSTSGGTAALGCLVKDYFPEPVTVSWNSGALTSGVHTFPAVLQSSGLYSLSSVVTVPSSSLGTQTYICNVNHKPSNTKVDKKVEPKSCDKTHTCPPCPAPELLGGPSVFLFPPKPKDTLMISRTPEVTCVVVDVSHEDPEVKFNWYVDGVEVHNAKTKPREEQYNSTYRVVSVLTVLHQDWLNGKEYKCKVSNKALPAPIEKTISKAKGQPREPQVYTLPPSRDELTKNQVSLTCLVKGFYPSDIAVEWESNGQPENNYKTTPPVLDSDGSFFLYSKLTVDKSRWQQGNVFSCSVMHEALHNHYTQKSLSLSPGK
Protocol: as §1, §2, §3, §4, §5, §6

human plasma IgG2 = target: T3, human plasma IgG2 (Homo sapiens, UniProt P01859); assay: as above
T3 construct: the individual human plasma IgG isoforms: IgG1, IgG2, IgG3, or IgG4; purchased Calbiochem; host or cells: human plasma
T3 sequence (P01859 1-326 isoform P01859-1): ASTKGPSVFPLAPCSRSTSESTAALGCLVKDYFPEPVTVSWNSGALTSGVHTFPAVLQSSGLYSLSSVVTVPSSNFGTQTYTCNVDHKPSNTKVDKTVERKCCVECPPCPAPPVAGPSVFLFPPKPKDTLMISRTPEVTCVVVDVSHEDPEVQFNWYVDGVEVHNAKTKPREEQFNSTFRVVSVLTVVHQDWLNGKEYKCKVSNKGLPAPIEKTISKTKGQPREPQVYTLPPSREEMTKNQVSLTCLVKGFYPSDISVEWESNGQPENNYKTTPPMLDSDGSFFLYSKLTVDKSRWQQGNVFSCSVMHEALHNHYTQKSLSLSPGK
Protocol: as §1, §2, §3, §4, §5, §6

human plasma IgG4 = target: T4, human plasma IgG4 (Homo sapiens, UniProt P01861); assay: as above
T4 construct: the individual human plasma IgG isoforms: IgG1, IgG2, IgG3, or IgG4; purchased Calbiochem; host or cells: human plasma
T4 sequence (P01861 1-327 isoform P01861-1): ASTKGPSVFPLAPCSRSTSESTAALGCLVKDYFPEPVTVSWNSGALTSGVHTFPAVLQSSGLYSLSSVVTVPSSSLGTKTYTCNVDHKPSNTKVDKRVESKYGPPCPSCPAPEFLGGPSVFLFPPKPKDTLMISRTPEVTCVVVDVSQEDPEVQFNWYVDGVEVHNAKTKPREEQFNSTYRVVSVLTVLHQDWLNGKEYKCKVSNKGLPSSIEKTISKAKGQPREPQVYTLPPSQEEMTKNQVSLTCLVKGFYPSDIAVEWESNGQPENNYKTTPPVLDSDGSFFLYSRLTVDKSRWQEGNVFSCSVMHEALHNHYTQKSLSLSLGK
Protocol: as §1, §2, §3, §4, §5, §6

human IgG [1] = assay: Static (filterplate) binding capacity; conditions: Table 18; 25 mg human IgG applied per ml resin; average ligand density 1.9 μmole/ml
Protocol: These media were used to determine the effect of ligand density on human IgG binding capacity in both static (filterplate) and dynamic (mini-column) modes with commercial immobilized recombinant Protein A (Repligen, IPA400) at a single density as control. Actual ligand densities obtained ranged from 0.17 to 3.2 μmole/ml media as confirmed by quantitative amino acid analysis.
After incubation of the samples, with shaking, at room temperature for one hour, the supernatant liquid from each well, containing unbound IgG, was collected by centrifugation into the cognate well of a collection plate. The assay plate was washed three times with PBST (200 μl/wash) and bound IgG was eluted from the media samples by incubation for 30-60 minutes at room temperature in 100 μl Elution Buffer (100 mM CAPS, pH 11.5). Eluates were collected by centrifugation for analysis. Protein concentrations were determined from A280 measurements and plotted as a function of mg human IgG bound per ml resin vs. mg human IgG applied per ml resin.
The amount of IgG captured (estimated from IgG recovered in the elution step) by the various media is dependent upon both the IgG concentration and the ligand density. […] Under these static conditions, where both ligand and target concentrations are close to KD values, equilibrium binding is established and total capacities cannot be accurately determined. However, over the IgG range of 0 to 25 mg IgG applied per ml resin (0 to 2.5 mg/ml target added to 10 μl of resin), capture of IgG is linear. Beyond this point, up to a level of 200 mg IgG applied per ml resin, saturation becomes more pronounced.

human IgG [2] = assay type: binding
Protocol: (§7) In addition, the following targets, all unfractionated IgGs, were also evaluated with selected immobilized peptides for species specificity characterization in a similar format: human IgG, goat IgG, bovine IgG, and mouse IgG (Sigma, product nos. I4506, I5256, I5506, and I15381, respectively). In addition, 10 μl aliquots of hydrolyzed NHS-activated Sepharose 4 Fast Flow (Amersham Pharmacia Biotech, product no. 17-0906-01) and immobilized recombinant Protein A (RepliGen Corp., product no. IPA-400) were also assayed as negative and positive controls. IgG targets were diluted into 10 mM phosphate buffer containing 150 mM NaCl and 0.01% Tween 20, pH 7.2 (PBST) or 50 mM Tris buffer containing, 150 mM NaCl and 0.01% Tween-20, pH 7.5 (TBST). Batch (static) binding and elution studies were conducted in a 96-well assay filterplate (Millipore MultiScreen-HV, with 0.45 μm Durapore membrane, product no. MAHVN4510). The target was allowed to incubate with the resin for 1-1.5 hours with shaking at room temperature. Unbound target was collected by centrifugation of samples from the assay plate directly into a low-UV absorbing 96-well collection plate (Costar, product no. 3635 or Greiner, product no. 655801). The unbound target was then quantitated by reading the absorbance at 280 nm (normalized to 1 cm pathlength, 1.4 mg/ml A280 extinction coefficient) of the collection plate on a microplate spectrophotometer (Molecular Devices Corp., SPECTRAmax PLUS) against a buffer blank.
(§8) The percentage bound target was determined by subtracting the mass determined as unbound from the corresponding condition's control values (control non-filtered added directly to the collection plate and/or the negative control). The assay plate was washed (3×) with 200 μl of binding buffer by vacuum filtration followed by addition of 100 μl of various elution conditions (e.g.: 0.1 M sodium bicarbonate buffer, pH 8.5 and/or 0.1 M sodium citrate buffer, pH 4.0). After a 30-60 minute incubation with shaking at room temperature, the eluted target was collected by centrifugation of the assay plate into another collection plate and quantitated in a similar manner. Percent elution of total load was then determined to characterize elution recovery efficiency under various conditions. The assay plate was then washed (3×) with 200 μl of binding buffer by vacuum filtration followed by addition of a resin cleaning condition (e.g., 0.1M CAPS buffer (3-[Cyclohexylamino]-1-propane-sulfonic acid), pH 11.5, to regenerate the resin for re-use. Percentage mass balance determination was calculated to be 90-100% on average.

IgG4 = IgG4 (Homo sapiens, UniProt P01861); assay type: binding; set-up: all human subtypes derived from myeloma patients; purchased Calbiochem 400126; host or cells: myeloma patients; conditions: Table 13
Chain of IgG4 (P01861 1-327 isoform P01861-1): as above
Protocol: as §7, §8

mouse IgG = assay type: binding; conditions: Table 14; average ligand density 1.8 μM/ml
Protocol: as §7, §8

human IgG2 = target: T5, human IgG2 (Homo sapiens, UniProt P01859); assay type: binding; conditions: Table 13
T5 construct: all human subtypes derived from myeloma patients; purchased Calbiochem 400122; host or cells: myeloma patients
T5 sequence (P01859 1-326 isoform P01859-1): as the sequence (P01859 1-326 isoform P01859-1) above
Protocol: as §7, §8

human IgG1 = target: T6, human IgG1 (Homo sapiens, UniProt P01857); assay type: binding; conditions: Table 13
T6 construct: all human subtypes derived from myeloma patients; purchased Calbiochem 400120; host or cells: myeloma patients
T6 sequence (P01857 1-330 isoform P01857-1): as the sequence (P01857 1-330 isoform P01857-1) above
Protocol: as §7, §8

Molecule: CC(=O)N[C@@H](C)C(=O)NCC(=O)N[C@@H](Cc1ccc(O)cc1)C(=O)N[C@@H](Cc1c[nH]c2ccccc12)C(=O)N[C@@H](Cc1ccc(O)cc1)C(=O)N[C@H]1CSSC[C@@H](C(=O)N2CCC[C@H]2C(=O)N[C@@H](CC(C)C)C(=O)N[C@@H](Cc2ccc(O)cc2)C(=O)N2CCC[C@H]2C(=O)NCC(=O)N2CCC[C@H]2C(=O)N[C@@H](CCC(=O)O)C(=O)NCC(=O)NCC(=O)NCC(=O)N[C@@H](CCCCN)C(N)=O)NC(=O)[C@H](CCC(=O)O)NC(=O)[C@@H]2CCCN2C(=O)[C@H](CCCNC(=N)N)NC(=O)[C@H](CC(=O)O)NC(=O)[C@@H]2CCCN2C(=O)[C@H](Cc2ccccc2)NC(=O)[C@H](Cc2c[nH]c3ccccc23)NC1=O [DX413] (Ac-AGYWYCWFPDRPECPLYPGPEGGGK-NH2; disulfide 6-14 (inferred))
- Kd (human plasma IgG3; 10 nM Tris-HCl, 500 mM Sodium Chloride, pH 7.5, read-out: KD (μM) IgG3 pH 7.5 + salt): > 10 µM
- Kd (human plasma IgG3; 10 mM Sodium Bicarbonate, 500 mM Sodium Chloride, pH 9.5, read-out: KD (μM) IgG3 pH 9.5 + salt): > 10 µM
- Kd (human plasma IgG3; 10 mM Sodium Bicarbonate, pH 9.5, read-out: KD (μM) IgG3 pH 9.5 − salt): > 10 µM
- Kd (human plasma IgG3; 10 mM Sodium Citrate, 500 mM Sodium Chloride, pH 4.0, read-out: KD (μM) IgG3 pH 4.0 + salt): ~1 µM
- Kd (human plasma IgG3; 10 mM Sodium Citrate, pH 4.0, read-out: KD (μM) IgG3 pH 4.0 − salt): ~1 µM
- Kd (human plasma IgG3; 10 mM Tris-HCl, pH 7.5, read-out: KD (μM) IgG3 pH 7.5 − salt): > 10 µM
- Kd (human plasma IgG1; 10 nM Tris-HCl, 500 mM Sodium Chloride, pH 7.5, read-out: KD (μM) IgG1 pH 7.5 + salt): > 10 µM
- Kd (human plasma IgG1; 10 mM Sodium Bicarbonate, 500 mM Sodium Chloride, pH 9.5, read-out: KD (μM) IgG1 pH 9.5 + salt): > 10 µM
- Kd (human plasma IgG1; 10 mM Sodium Bicarbonate, pH 9.5, read-out: KD (μM) IgG1 pH 9.5 − salt): > 10 µM
- Kd (human plasma IgG1; 10 mM Sodium Citrate, 500 mM Sodium Chloride, pH 4.0, read-out: KD (μM) IgG1 pH 4.0 + salt): > 10 µM
- Kd (human plasma IgG1; 10 mM Sodium Citrate, pH 4.0, read-out: KD (μM) IgG1 pH 4.0 − salt): > 10 µM
- Kd (human plasma IgG1; 10 mM Tris-HCl, pH 7.5, read-out: KD (μM) IgG1 pH 7.5 − salt): > 10 µM
- Kd (human plasma IgG2; 10 nM Tris-HCl, 500 mM Sodium Chloride, pH 7.5, read-out: KD (μM) IgG2 pH 7.5 + salt): > 10 µM
- Kd (human plasma IgG2; 10 mM Sodium Bicarbonate, 500 mM Sodium Chloride, pH 9.5, read-out: KD (μM) IgG2 pH 9.5 + salt): > 10 µM
- Kd (human plasma IgG2; 10 mM Sodium Bicarbonate, pH 9.5, read-out: KD (μM) IgG2 pH 9.5 − salt): > 10 µM
- Kd (human plasma IgG2; 10 mM Sodium Citrate, 500 mM Sodium Chloride, pH 4.0, read-out: KD (μM) IgG2 pH 4.0 + salt): > 10 µM
- Kd (human plasma IgG2; 10 mM Sodium Citrate, pH 4.0, read-out: KD (μM) IgG2 pH 4.0 − salt): > 10 µM
- Kd (human plasma IgG2; 10 mM Tris-HCl, pH 7.5, read-out: KD (μM) IgG2 pH 7.5 − salt): > 10 µM
- Kd (human plasma IgG4; 10 nM Tris-HCl, 500 mM Sodium Chloride, pH 7.5, read-out: KD (μM) IgG4 pH 7.5 + salt): > 10 µM
- Kd (human plasma IgG4; 10 mM Sodium Bicarbonate, 500 mM Sodium Chloride, pH 9.5, read-out: KD (μM) IgG4 pH 9.5 + salt): > 10 µM
- Kd (human plasma IgG4; 10 mM Sodium Bicarbonate, pH 9.5, read-out: KD (μM) IgG4 pH 9.5 − salt): > 10 µM
- Kd (human plasma IgG4; 10 mM Sodium Citrate, 500 mM Sodium Chloride, pH 4.0, read-out: KD (μM) IgG4 pH 4.0 + salt): > 10 µM
- Kd (human plasma IgG4; 10 mM Sodium Citrate, pH 4.0, read-out: KD (μM) IgG4 pH 4.0 − salt): > 10 µM
- Kd (human plasma IgG4; 10 mM Tris-HCl, pH 7.5, read-out: KD (μM) IgG4 pH 7.5 − salt): > 10 µM

Molecule: Ac-GDDHMCVYTTWGELIWCDNHEPG-X-Su-X-NH2 (Ac-GDDHMCVYTTWGELIWCDNHEPG-{code X-Su-code X-NH2}; not fully specified (bridges); printed as Ac-GDDHMCVYTTWGELIWCDNHEPG-X-Su-X-NH2; cysteine pairing not given here; reading uncertain) [DX878]
- Static Cap. (human IgG [1]): 23 mg/mL
- Batch Binding (% Capture of Total Load) hIgG (human IgG [2]; Table 18, average ligand density 1.9 μmole/ml): 63%

Molecule: Ac-GDSWNCAFHHNEMVWCDDGGTPGPEGGGK-NH2 (not fully specified (bridges); printed as Ac-GDSWNCAFHHNEMVWCDDGGTPGPEGGGK-NH2; cysteine pairing not given here) [DX597]
- hIgG4 elution pH 2.5 (% of Total Load) (IgG4): 50%
- hIgG4 elution pH 3.5 (% of Total Load) (IgG4): 62%
- hIgG4 elution pH 4.5 (% of Total Load) (IgG4): 13%
- hIgG4 elution pH 5.5 (% of Total Load) (IgG4): 3%
- hIgG4 elution pH 9.0 (% of Total Load) (IgG4): 56%
- hIgG4 elution pH 9.5 (% of Total Load) (IgG4): 67%
- % IgG Capture - Batch Binding, Human IgG (human IgG [2]; Table 14, average ligand density 1.8 μM/ml): 77%
- % IgG Capture - Batch Binding, Mouse IgG (mouse IgG): 3%
- hIgG2 elution pH 2.5 (% of Total Load) (human IgG2): 82%
- hIgG2 elution pH 3.5 (% of Total Load) (human IgG2): 80%
- hIgG2 elution pH 4.5 (% of Total Load) (human IgG2): 38%
- hIgG2 elution pH 5.5 (% of Total Load) (human IgG2): 1%
- hIgG2 elution pH 9.0 (% of Total Load) (human IgG2): 51%
- hIgG2 elution pH 9.5 (% of Total Load) (human IgG2): 60%
- hIgG1 elution pH 2.5 (% of Total Load) (human IgG1): 76%
- hIgG1 elution pH 3.5 (% of Total Load) (human IgG1): 81%
- hIgG1 elution pH 4.5 (% of Total Load) (human IgG1): 39%
- hIgG1 elution pH 5.5 (% of Total Load) (human IgG1): 1%
- hIgG1 elution pH 9.0 (% of Total Load) (human IgG1): 52%
- hIgG1 elution pH 9.5 (% of Total Load) (human IgG1): 57%

Reference: patent publication US20030199671A1, “Binding molecules for Fc-region polypeptides” (priority 2001, published 2003)
